Our source for the AC50 values is ChEMBL document CHEMBL5291721, “A preclinical secondary pharmacology resource illuminates target-adverse drug reaction associations of marketed drugs” (Nat Commun, 2023).

Assay [1] addresses T1, Alpha-1A adrenergic receptor (Homo sapiens, UniProt P35348).
T1 sequence (P35348 whole entry): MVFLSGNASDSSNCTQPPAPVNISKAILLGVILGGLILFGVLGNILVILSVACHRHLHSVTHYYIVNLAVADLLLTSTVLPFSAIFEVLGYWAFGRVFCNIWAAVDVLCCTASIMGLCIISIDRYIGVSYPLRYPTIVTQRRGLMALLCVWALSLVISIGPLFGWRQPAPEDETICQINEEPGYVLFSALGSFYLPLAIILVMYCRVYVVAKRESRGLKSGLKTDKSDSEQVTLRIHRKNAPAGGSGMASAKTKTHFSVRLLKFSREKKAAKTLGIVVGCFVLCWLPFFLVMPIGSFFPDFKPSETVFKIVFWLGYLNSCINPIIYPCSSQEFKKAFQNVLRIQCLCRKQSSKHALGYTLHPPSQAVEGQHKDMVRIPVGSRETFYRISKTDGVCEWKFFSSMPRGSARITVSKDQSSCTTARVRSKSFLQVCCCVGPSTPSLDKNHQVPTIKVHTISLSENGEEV

The target of assay [2] is T2, Alpha-2C adrenergic receptor (Homo sapiens, UniProt P18825).
T2 sequence (P18825 whole entry): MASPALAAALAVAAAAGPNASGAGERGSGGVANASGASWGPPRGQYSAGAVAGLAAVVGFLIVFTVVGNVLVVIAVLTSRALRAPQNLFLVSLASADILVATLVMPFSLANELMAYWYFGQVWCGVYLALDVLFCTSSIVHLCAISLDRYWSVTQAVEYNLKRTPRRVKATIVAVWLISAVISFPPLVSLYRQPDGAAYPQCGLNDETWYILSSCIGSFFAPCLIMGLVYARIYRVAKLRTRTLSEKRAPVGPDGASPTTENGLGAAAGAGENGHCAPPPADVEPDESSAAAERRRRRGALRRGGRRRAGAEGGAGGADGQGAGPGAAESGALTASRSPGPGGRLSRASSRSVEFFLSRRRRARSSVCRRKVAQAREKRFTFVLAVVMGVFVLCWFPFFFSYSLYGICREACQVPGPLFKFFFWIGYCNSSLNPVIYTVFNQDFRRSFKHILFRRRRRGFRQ
The class given is functional.

The target in assay [3] is Beta-1 adrenergic receptor (Homo sapiens, UniProt P08588). The assay is classed as functional.
Assay [4] concerns the target T3, B2 bradykinin receptor (Homo sapiens, UniProt P30411).
T3 sequence (P30411 whole entry): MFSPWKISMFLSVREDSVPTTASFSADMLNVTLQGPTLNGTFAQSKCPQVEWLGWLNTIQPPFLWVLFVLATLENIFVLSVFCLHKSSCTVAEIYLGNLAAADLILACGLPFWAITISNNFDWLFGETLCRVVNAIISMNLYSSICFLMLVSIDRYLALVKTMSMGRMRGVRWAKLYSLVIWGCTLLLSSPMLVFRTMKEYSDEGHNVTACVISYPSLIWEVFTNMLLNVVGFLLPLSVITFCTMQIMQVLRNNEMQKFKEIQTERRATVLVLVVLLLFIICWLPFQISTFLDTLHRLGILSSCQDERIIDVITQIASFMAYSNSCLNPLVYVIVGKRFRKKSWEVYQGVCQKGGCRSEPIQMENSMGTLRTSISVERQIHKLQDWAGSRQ

For assay [5], the target named is T4, Muscarinic acetylcholine receptor M1 (Homo sapiens, UniProt P11229).
T4 sequence (P11229 whole entry): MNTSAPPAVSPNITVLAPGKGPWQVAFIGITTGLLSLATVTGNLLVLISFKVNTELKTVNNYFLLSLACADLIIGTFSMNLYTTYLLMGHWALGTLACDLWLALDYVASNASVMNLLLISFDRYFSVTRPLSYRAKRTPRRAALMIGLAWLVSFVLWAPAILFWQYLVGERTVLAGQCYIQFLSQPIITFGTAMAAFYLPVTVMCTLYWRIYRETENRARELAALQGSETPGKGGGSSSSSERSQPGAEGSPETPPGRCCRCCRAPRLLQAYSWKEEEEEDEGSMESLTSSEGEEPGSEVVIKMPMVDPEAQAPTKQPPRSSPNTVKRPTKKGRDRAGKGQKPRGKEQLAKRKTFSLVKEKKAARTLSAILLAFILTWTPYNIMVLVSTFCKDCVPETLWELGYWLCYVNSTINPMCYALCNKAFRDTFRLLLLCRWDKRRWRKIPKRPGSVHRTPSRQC
The class given is functional.

The target of assay [6] is T5, 5-hydroxytryptamine receptor 1A (Homo sapiens, UniProt P08908).
T5 sequence (P08908 whole entry): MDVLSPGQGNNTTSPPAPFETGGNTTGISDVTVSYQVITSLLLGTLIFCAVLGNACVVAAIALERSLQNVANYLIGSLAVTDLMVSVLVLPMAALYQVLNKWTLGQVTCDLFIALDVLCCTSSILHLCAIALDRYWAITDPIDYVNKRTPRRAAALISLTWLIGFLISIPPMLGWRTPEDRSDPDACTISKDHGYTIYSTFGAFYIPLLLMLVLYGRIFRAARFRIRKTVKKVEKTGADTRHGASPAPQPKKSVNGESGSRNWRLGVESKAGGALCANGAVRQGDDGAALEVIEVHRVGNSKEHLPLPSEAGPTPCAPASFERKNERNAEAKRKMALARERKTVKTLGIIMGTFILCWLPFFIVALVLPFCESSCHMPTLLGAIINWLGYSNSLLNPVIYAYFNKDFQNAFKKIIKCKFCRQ
The class given is functional, cell-based.

The target of assay [7] is T6, Thromboxane A2 receptor (Homo sapiens, UniProt P21731).
T6 sequence (P21731 whole entry): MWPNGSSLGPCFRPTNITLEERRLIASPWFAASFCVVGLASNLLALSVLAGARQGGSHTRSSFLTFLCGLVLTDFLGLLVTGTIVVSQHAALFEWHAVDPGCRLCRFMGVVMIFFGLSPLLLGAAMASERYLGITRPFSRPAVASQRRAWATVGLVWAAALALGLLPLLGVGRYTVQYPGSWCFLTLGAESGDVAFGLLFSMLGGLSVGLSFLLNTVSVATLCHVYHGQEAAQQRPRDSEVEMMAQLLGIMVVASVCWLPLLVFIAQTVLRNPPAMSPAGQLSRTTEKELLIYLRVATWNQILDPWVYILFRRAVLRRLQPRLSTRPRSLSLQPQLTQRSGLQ

Assay [8] concerns the target Mu-type opioid receptor (Homo sapiens, UniProt P35372).

Some results are limits rather than exact numbers.
Also: assay procedure not described here.

Sequence of Beta-1 adrenergic receptor (P08588 whole entry): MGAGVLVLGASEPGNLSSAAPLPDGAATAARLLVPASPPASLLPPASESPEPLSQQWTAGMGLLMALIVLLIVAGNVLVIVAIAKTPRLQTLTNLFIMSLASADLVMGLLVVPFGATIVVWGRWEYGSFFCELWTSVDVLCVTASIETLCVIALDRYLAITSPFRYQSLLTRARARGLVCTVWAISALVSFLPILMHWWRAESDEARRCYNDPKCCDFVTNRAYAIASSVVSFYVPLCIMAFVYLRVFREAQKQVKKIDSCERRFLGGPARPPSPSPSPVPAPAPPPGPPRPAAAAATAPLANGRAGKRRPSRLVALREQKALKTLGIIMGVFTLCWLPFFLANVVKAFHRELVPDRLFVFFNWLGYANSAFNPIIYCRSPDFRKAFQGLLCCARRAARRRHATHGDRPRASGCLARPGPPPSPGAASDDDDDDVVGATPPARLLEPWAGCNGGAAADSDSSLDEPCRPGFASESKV
Sequence of Mu-type opioid receptor (P35372 whole entry): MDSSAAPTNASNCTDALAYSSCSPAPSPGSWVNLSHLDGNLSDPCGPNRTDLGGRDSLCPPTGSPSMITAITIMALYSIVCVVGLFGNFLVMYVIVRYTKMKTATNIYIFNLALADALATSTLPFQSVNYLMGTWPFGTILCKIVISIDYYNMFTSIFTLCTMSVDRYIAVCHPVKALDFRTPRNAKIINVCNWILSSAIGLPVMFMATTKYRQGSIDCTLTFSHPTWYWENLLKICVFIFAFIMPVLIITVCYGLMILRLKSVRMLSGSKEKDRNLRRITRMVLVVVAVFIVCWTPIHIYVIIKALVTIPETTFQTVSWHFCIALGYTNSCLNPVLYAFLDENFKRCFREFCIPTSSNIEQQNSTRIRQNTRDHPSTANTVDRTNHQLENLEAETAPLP

Broadly, the AC50 is the concentration at which the activity in the assay is half-maximal. Low values mean greater potency, high ones weaker potency. Take `Nc1nc(Cl)nc2c1ncn2[C@@H]1O[C@H](CO)[C@@H](O)[C@@H]1F` [CLOFARABINE]: the AC50 is 29 µM in assay [1]; greater than 30 µM in assay [2]; greater than 30 µM in assay [3]; greater than 30 µM in assay [4]; greater than 30 µM in assay [5]; greater than 30 µM in assay [6]. The AC50 in assay [7] and in assay [8] was greater than 30 µM each time.
With `CN(C)CCOC(=O)C(c1ccccc1)C1(O)CCCC1` (stereo not given) [CYCLOPENTOLATE], the AC50 in assay [1] is greater than 30 µM; in assay [2] it was greater than 30 µM; in assay [3], greater than 10 µM; in assay [4] it was greater than 10 µM; in assay [5], 0.069 µM; in assay [6] it was greater than 10 µM. In addition, the AC50 in assay [7] is greater than 10 µM; in assay [8] it was greater than 30 µM.
With `CN1C(=O)CN=C(c2ccccc2F)c2cc([N+](=O)[O-])ccc21` [FLUNITRAZEPAM], the AC50 in assay [1] is greater than 10 µM; in assay [2], greater than 10 µM; in assay [3], greater than 10 µM; in assay [4], greater than 30 µM; in assay [5], greater than 10 µM; in assay [6], greater than 10 µM. The figures for the AC50 in assay [7] and in assay [8] were greater than 30 µM and greater than 10 µM, respectively.
Turning to `Cc1ccc(-c2ncc(Cl)cc2-c2ccc(S(C)(=O)=O)cc2)cn1` [ETORICOXIB], the AC50 in assay [1] is greater than 10 µM; in assay [2], greater than 10 µM; in assay [3] it was greater than 10 µM; in assay [4] it was greater than 30 µM; in assay [5] it was greater than 10 µM; in assay [6], greater than 10 µM. Besides, the AC50 in assay [7] and in assay [8] was greater than 10 µM throughout.
Turning to `CC(C(=O)O)c1ccc(C(=O)c2ccccc2)s1` (stereo not given) [TIAPROFENIC ACID], the AC50 is 10 µM in assay [1]; 15 µM in assay [2]; greater than 10 µM in assay [3]; greater than 10 µM in assay [4]; greater than 10 µM in assay [5]; greater than 10 µM in assay [6]. Moreover, the AC50 in assay [7] is greater than 10 µM; in assay [8], greater than 30 µM.
Consider `Oc1cc(O)c2c(c1)O[C@H](c1ccc(O)c(O)c1)[C@@H](O)C2` [CIANIDANOL], for which the AC50 in assay [1] is greater than 10 µM; in assay [2], greater than 10 µM; in assay [3] it was greater than 10 µM; in assay [4] it was greater than 30 µM; in assay [5], greater than 10 µM; in assay [6], greater than 10 µM. Further, the AC50 in assay [7] and in assay [8] was greater than 30 µM throughout.
In the case of `CCOC(=O)O[C@]1(C(=O)COC(=O)CC)CC[C@H]2[C@@H]3CCC4=CC(=O)C=C[C@]4(C)[C@H]3[C@@H](O)C[C@@]21C` [PREDNICARBATE], the AC50 in assay [1], in assay [2], in assay [3], in assay [4], in assay [5] and in assay [6] was greater than 10 µM in each case. Besides, the AC50 was greater than 10 µM in assay [7] and greater than 30 µM in assay [8].
Consider `CC1NCCOC1c1ccccc1` (stereo not given) [PHENMETRAZINE], for which the AC50 in assay [1] is greater than 10 µM; in assay [2], greater than 10 µM; in assay [3], greater than 10 µM; in assay [4], greater than 30 µM; in assay [5], greater than 10 µM; in assay [6], greater than 10 µM. Also, the AC50 in assay [7] and in assay [8] was greater than 30 µM in each case.
Turning to `C=C(c1ccccc1OCc1cccc(Cl)c1)n1ccnc1` [CROCONAZOLE], the AC50 in assay [1] is 9.4 µM; in assay [2], greater than 10 µM; in assay [3] it was greater than 30 µM; in assay [4] it was greater than 30 µM; in assay [5] it was greater than 10 µM; in assay [6], 24 µM. Moreover, the AC50 was 16.2 µM in assay [7] and greater than 30 µM in assay [8].
For `OCC(O)COc1ccc(Cl)cc1` (stereo not given), the AC50 in assay [1], in assay [2], in assay [3], in assay [4], in assay [5] and in assay [6] was greater than 10 µM each time. For the same molecule, the AC50 is greater than 10 µM in assay [7] and greater than 30 µM in assay [8].
